Source: publication PMC9319939, “Siccanin Is a Dual-Target Inhibitor of Plasmodium falciparum Mitochondrial Complex II and Complex III” (Pharmaceuticals, 2022)
Like-named read-outs stand apart in the source and are kept apart here.

Columns and labels:
P. falciparum 3D7-yDHODH = assay: Growth inhibition of yeast DHODH-expressing strain; assay type: cell-based; conditions: Plasmodium falciparum, 3D7, read-out: Growth inhibition EC50, 3D7-yDHODH
Method: (§1) P. falciparum 3D7-yDHODH was prepared and maintained as described previously. P. falciparum Dd2, and Dd2-derived mutant strains were kindly provided by David A. Fidock, and maintained at Nagasaki University essentially as described in reference, except without supplementation with WR99210.
(§2) Synchronized ring-form parasites (0.3% parasitemia) were prepared in complete medium containing different concentration of various compounds (at a fixed final DMSO concentration of 0.1% (v/v)) and distributed to 96-well plates at 100 μL/well. After 72 h of incubation, parasite growth was monitored by the previously described lactate dehydrogenase (PfLDH)-based assay method; plates were read using a SpectraMax® Paradigm spectrophotometer (Molecular Devices, Inc.; San Jose, CA, USA). EC50 values were calculated using Prism® ver.6.01 (GraphPad; San Diego, CA, USA). Values are presented as the means of three independent experiments.

[1] = test system: T. mentagrophytes complex II; set-up: method as in PMID 4250609; conditions: ref [31]; read-out: IC50, T. mentagrophytes enzyme; cited from earlier work
[2] = test system: Dd2_GNF (Carl-I1139K mutation); assay: Growth inhibition of Dd2_GNF (GNF156-resistant); assay type: cell-based; conditions: Plasmodium falciparum, read-out: Growth inhibition EC50, GNF
Method: as §1, §2

[3] = test system: type-II NADH dehydrogenase (NDH2); assay: NDH2 activity, crude mitochondrial fraction, NADH at 340 nm; assay type: biochemical, Plasmodium falciparum
Method: A synchronized parasite culture was grown for 64 h and a crude mitochondrial fraction was prepared from trophozoite-stage cells (as confirmed by Giemsa staining). Infected red blood cells were collected by centrifugation at 800× g for 5 min at 4 °C and incubated for 5 min at room temperature with 40 mL of 0.075% (w/v) saponin in AIM buffer (120 mM KCl, 20 mM NaCl, 10 mM PIPES (1,4-piperazinediethanesulfonic acid) buffer [pH 6.7], 1 mM MgCl2, 5 mM glucose). Released parasites were collected by centrifugation at 2780× g for 7 min at 4 °C and washed three times with AIM buffer. […]
Complex II, DHODH, MQO, NDH2, G3PDH, and dihydroorotate-cytochrome c (DHO-cyt c) reductase activities were measured, as described previously, using a V-660 spectrophotometer (JASCO; Tokyo, Japan). Briefly, complex II activity was measured at 25 °C in a 1 mL reaction mixture containing 45 μM 2,6-dichlorophenolidophenol (DCIP), 100 μM ubiquinone-2 (UQ2), and 2 mM KCN in 50 mM potassium phosphate buffer, pH 8.0. DHODH, MQO, and G3PDH activities were measured at 25 °C in 1 mL of the reaction mixture containing 45 μM DCIP, 100 μM UQ2, and 2 mM KCN in 30 mM Tris-HCl buffer, pH 8.0. […] NDH2 activity was measured at 25 °C in 1 mL of the reaction mixture containing 100 µM UQ1 and 2 mM KCN in 50 mM potassium phosphate buffer, pH 8.0. […]

P. falciparum 3D7 = assay: Drug sensitivity assay, 72 h, PfLDH-based; assay type: cell-based; conditions: Plasmodium falciparum
Method: The P. falciparum 3D7 strain was cultured, as described previously, in 3% hematocrit type A human red blood cells (RBCs) in RPMI1640 medium (Invitrogen; San Diego, CA, USA) supplemented with 25 mM sodium hydrogen biocarbonate, 10 μg/mL hypoxanthine, 40 μg/mL gentamicin sulfate, and 0.5% (w/v) Albumax II (Invitrogen) (“complete medium”). Cultures were maintained in a MG-70M multi-gas incubator (Taitec) under the conditions of 5% O2, 5% CO2, and 90% N2 at 37 °C. The medium was replaced daily. Parasitemia was measured by thin blood smears stained with Giemsa. In our previous study, we generated mutant P. falciparum strains expressing either disrupted or full-length versions of the flavoprotein (Fp) subunit (encoded by the Pfsdha gene). Both strains were cultured in complete medium at 3% hematocrit supplemented with 5 nM WR99210 (Jacobus Pharmaceuticals; Plainsboro, NJ, USA). The experiments using human RBCs were performed under the guidelines of Research Ethics Committee of the Faculty of Medicine of the University of Tokyo and Institutional Review Board (IRB) of Nagasaki University (Permission nos. 10050 and no. 19, respectively). Human RBCs were obtained from The Japanese Red Cross Society. The synchronization of parasite cultures was performed by treating with 5% (w/v) sorbitol for 10 min [77].
as §2

In the case of Cc1cc(O)c2c(c1)O[C@@]1(C)CC[C@H]3C(C)(C)CCC[C@]34CO[C@@H]2[C@H]41 [Siccanin], the EC50 (P. falciparum 3D7-yDHODH) is given as 10.3 µM, the IC50 [1] is given as about 0.09 µM and the EC50 [2] is given as 13.4 µM. For the same compound, the “Effect on NDH2 activity” value ([3]; 10 µM) was “did not inhibit”, the “Relative residual activity of NDH2” value ([3]; siccanin 10 μM) was 101.8 ± 8.1% and the IC50 (P. falciparum 3D7; 3D7, read-out: Growth IC50, parent (wild-type) 3D7) was 6.1 ± 1 µM. It also gave an EC50 (P. falciparum 3D7; 3D7, Figure 6a, read-out: Growth inhibition EC50, 3D7 (parent)) of 11.7 µM, an IC50 (P. falciparum 3D7; 3D7, 72 h, 5 mM fumarate, read-out: Growth IC50 in presence of fumarate) of 11.5 ± 1.09 µM and an IC50 (P. falciparum 3D7; 3D7, 72 h, 5 mM succinate, read-out: Growth IC50 in presence of succinate) of 10.8 ± 2.16 µM. It also gave an IC50 (P. falciparum 3D7; 3D7, 72 h, no succinate or fumarate added, read-out: Growth IC50, P. falciparum) of 8.4 µM.
